Measured values: patent US11708367B2, “Compounds for the treatment of kinase-dependent disorders” (Exelixis, Inc., priority 2018, dated 2023)

Experiments:
Met [1] = target: T1, Met (Homo sapiens (Human), UniProt P08581); assay: Human Met kinase assay (33P radiometric, KinaseProfiler); format: biochemical; conditions: 10 μM ATP, read-out: c-Met IC50
Procedure: (§1) Kinase activity and compound inhibition were investigated using the ^33P-Phosphoryl transfer radiometric kinase assay, performed using the KinaseProfiler™ service of Eurofins Pharma Discovery Services UK Limited. Dose-response experiments were performed using nine compound concentrations in a 96-well microtiter plate. For each assay, all compounds were prepared to a 50× final assay concentration (50 μM) in 100% DMSO, then diluted in a half-log series, with the final top concentration at 1 μM. This working stock of the compound was added to the assay well as the first component in the reaction, followed by the remaining components as detailed in the following assay protocols below. The positive control wells (100% kinase activity) contain all components of the reaction including 2% DMSO (control for solvent effects), except the compound of interest. Blank wells contain all components of the reaction, with the reference inhibitor, staurosporine. This reference compound was used to abolish kinase activity and generated the 0% kinase activity base-line. IC50 values were calculated by nonlinear regression analysis using the sigmoidal dose-response (variable slope) curve fit on XLFit version 5.3 (ID Business Solutions).
Human Met (residues R974-S1390 with A1209G and V1290L, 3.4 nM) was incubated with 8 mM MOPS pH 7.0, 0.2 mM EDTA, 250 µM KKKGQEEEYVFIE (SEQ ID NO. 45), 1 mM sodium orthovanadate, 5 mM […], 10 mM magnesium acetate, and 10 μM [γ-33P-ATP]. The reaction was initiated by the addition of the Mg/ATP mix. After incubation for 40 minutes at room temperature, the reaction was stopped by the addition of phosphoric acid to a concentration of 0.5%. A reaction aliquot of 10 μL was then spotted onto a P30 filtermat and washed four times for 4 minutes in 0.425% phosphoric acid and once in methanol prior to drying and scintillation counting. Incorporated 33P was measured using the Wallac Microbeta scintillation counter (Perkin Elmer).

Human Axl = Human Axl (Homo sapiens (Human), UniProt P30530, Q764R); assay: Human AXL kinase assay (33P radiometric, KinaseProfiler); format: biochemical; conditions: 10 μM ATP
Chain of Human Axl (P30530 473-894 Q764R): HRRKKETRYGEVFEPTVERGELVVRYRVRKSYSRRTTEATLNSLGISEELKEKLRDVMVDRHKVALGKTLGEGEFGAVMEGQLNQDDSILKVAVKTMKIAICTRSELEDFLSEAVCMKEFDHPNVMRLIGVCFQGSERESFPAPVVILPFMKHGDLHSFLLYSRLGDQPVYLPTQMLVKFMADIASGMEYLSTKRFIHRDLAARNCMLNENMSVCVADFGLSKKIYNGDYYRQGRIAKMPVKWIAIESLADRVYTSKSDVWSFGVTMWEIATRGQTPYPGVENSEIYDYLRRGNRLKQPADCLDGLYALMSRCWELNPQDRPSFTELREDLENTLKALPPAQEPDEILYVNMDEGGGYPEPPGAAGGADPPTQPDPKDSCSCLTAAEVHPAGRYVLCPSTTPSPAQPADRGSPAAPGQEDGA
Procedure: as §1
Human Axl (residues H473-A894 with Q764R, 161 nM) was incubated with 8 mM MOPS pH 7.0, 0.2 mM EDTA, 250 μM KKSRGDYMTMQIG (SEQ ID NO. 43), 10 mM magnesium acetate and 10 μM [γ-33P-ATP]. The reaction was initiated by the addition of the Mg/ATP mix. After incubation for 40 minutes at room temperature, the reaction was stopped by the addition of phosphoric acid to a concentration of 0.5%. A reaction aliquot of 10 μL was then spotted onto a P30 filtermat and washed four times for 4 minutes in 0.425% phosphoric acid and once in methanol prior to drying and scintillation counting. Incorporated ^33P was measured using the Wallac Microbeta scintillation counter (Perkin Elmer).

Mer = Mer (Homo sapiens (Human), UniProt Q12866); assay: Human Mer kinase assay (33P radiometric, KinaseProfiler); format: biochemical; conditions: 10 μM ATP
Chain of Mer (Q12866 557-882): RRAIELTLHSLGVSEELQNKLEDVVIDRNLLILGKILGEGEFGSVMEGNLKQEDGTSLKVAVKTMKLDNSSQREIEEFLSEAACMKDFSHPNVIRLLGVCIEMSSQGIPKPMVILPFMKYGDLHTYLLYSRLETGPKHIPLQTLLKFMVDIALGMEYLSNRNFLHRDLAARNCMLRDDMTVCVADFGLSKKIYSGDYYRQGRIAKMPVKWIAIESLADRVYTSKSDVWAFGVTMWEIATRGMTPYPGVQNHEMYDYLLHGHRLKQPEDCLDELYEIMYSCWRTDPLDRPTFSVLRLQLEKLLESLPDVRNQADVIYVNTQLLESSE
Procedure: as §1
Human Mer (residues R557-E882 with H628Q and R794A, 0.7 nM) was incubated with 8 mM MOPS pH 7.0, 0.2 mM EDTA, 30 mM NaCl, 250 μM GGMEDIYFEFMGGKKK (SEQ ID NO. 44), 10 mM magnesium acetate, and 10 μM [γ-33P-ATP]. The reaction was initiated by the addition of the Mg/ATP mix. After incubation for 40 minutes at room temperature, the reaction was stopped by the addition of phosphoric acid to a concentration of 0.5%. A reaction aliquot of 10 μL was then spotted onto a P30 filtermat and washed four times for 4 minutes in 0.425% phosphoric acid and once in methanol prior to drying and scintillation counting. Incorporated 33P was measured using the Wallac Microbeta scintillation counter (Perkin Elmer).

AXL = AXL (Homo sapiens (Human), UniProt P30530); assay: AXL autophosphorylation ELISA in A-172 cells; format: cell-based; conditions: cellular, Gas6-stimulated, phospho-AXL ELISA
Chain of AXL (P30530 26-894): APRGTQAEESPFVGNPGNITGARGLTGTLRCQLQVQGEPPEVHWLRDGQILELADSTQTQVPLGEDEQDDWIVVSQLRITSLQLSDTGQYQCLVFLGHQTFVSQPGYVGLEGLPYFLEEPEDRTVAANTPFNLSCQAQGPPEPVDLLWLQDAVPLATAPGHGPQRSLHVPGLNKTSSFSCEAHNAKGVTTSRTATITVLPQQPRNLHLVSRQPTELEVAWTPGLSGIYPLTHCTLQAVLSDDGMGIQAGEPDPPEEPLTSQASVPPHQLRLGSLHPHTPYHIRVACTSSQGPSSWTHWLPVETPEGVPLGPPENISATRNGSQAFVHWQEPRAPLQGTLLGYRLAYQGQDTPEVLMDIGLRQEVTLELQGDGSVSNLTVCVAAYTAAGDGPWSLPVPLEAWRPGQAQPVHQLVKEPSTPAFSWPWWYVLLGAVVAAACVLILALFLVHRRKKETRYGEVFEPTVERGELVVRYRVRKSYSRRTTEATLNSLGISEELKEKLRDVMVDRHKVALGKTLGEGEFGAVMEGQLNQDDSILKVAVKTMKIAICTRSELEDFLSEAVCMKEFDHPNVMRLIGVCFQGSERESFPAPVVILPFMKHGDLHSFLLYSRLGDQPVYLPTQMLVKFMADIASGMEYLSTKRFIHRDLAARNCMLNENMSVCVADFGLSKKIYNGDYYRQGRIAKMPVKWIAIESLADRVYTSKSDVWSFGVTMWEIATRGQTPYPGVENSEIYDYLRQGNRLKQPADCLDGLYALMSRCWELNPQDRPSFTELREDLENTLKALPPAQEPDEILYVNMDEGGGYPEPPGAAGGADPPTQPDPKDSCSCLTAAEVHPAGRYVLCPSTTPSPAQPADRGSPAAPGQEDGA
Procedure: A-172 glioblastoma cells (ATCC #CRL-1620) were seeded at 2.5×10^5 cells/well onto 24-well plates (Greiner #662165), in DMEM (Thermo Fisher #11995-040) containing 10% FBS (Thermo Fisher #26140-079), 1% MEM NEAA (Thermo Fisher #11140-050), 1% GlutaMax (Thermo Fisher #35050-061), and 1% Penicillin Streptomycin (Thermo Fisher #15140-122). A-172 cells were incubated at 37° C., 5% CO2 for 24 h and then starved for 24 h in serum-free medium. Test compounds were serially diluted to produce an 8-point dose curve in fresh serum-free medium to a final concentration of 0.3% DMSO (vehicle) and added to the cells and incubated for 1 h. Cells were then stimulated with 1 μg/mL recombinant human Gas6 (R&D Systems #885-GSB-500) for 15 min, washed with cold PBS, and immediately lysed with 150 μL of cold IX lysis buffer [20 mM Tris, 137 mM sodium chloride, 2 mM EDTA, 10% glycerol, 1% NP-40 alternative, 1 mM activated sodium orthovanadate, 1 mM PefaBloc SC (Sigma-Aldrich #11429868001), protease/phosphatase inhibitor tablet (Thermo Fisher #A32959)]. Lysates were collected and 100 μL/well added into the human phospho-AXL Duo Set IC ELISA (R&D Systems #DYC2228-2). Assay was performed according to manufacturer's instructions and sample phospho-AXL concentrations were extrapolated using human phospho-AXL control (R&D Systems #841645) as a standard. Positive control wells (100% activity) contained Gas6-stimulated, DMSO-treated cell lysates. Negative control wells (0% activity) contained Gas6-stimulated, reference inhibitor-treated cell lysates. IC50 values were calculated by nonlinear regression analysis using a 4-parameter logistic curve fit in ActivityBase XL (IDBS).

KDR = KDR (Homo sapiens (Human), UniProt P35968); assay: KDR autophosphorylation ELISA in HUVEC cells; format: cell-based; conditions: cellular, VEGF165-stimulated, phospho-KDR ELISA
Chain of KDR (P35968 20-1356): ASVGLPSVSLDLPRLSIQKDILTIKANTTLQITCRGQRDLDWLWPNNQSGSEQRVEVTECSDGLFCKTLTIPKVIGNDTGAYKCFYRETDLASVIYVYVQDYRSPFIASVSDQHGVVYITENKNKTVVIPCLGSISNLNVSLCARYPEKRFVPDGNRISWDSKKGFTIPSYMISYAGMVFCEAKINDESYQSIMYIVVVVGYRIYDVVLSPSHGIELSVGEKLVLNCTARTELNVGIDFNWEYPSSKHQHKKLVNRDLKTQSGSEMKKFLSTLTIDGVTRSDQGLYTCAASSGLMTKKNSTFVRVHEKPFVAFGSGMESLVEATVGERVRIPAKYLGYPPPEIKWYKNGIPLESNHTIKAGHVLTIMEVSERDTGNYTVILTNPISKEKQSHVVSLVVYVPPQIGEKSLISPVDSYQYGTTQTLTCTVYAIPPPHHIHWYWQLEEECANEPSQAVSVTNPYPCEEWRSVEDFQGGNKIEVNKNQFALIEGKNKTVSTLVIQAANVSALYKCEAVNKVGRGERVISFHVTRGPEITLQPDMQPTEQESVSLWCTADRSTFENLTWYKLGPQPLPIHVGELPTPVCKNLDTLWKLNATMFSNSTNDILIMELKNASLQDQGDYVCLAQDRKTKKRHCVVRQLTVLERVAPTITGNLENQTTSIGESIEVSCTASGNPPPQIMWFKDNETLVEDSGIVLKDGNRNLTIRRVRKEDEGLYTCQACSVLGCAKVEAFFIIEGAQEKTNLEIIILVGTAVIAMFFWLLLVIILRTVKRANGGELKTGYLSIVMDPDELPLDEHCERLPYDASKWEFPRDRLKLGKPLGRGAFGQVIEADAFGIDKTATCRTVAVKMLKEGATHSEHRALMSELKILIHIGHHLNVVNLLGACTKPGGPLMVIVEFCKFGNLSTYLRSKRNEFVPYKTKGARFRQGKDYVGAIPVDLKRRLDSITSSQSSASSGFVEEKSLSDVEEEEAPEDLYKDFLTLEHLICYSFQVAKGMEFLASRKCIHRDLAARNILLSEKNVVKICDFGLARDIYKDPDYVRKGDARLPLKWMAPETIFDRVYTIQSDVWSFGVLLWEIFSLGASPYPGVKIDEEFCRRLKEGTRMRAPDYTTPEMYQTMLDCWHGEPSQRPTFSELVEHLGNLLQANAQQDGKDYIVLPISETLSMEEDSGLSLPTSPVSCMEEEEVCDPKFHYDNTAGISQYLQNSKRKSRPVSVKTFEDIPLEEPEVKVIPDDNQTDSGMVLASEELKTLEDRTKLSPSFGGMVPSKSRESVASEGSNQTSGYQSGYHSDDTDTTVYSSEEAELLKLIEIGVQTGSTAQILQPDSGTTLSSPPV
Procedure: Human umbilical vein endothelial cells or HUVEC (Lonza #C2519A) were seeded at 2×10^4 cells/well onto 96-well plates (Corning #3904), in EGM-2 growth medium (Lonza #CC-3162) containing 1% Penicillin Streptomycin (Thermo Fisher #15140-122). HUVEC cells were incubated at 37° C., 5% CO2 for 24 h and then starved for 24 h in serum-free EBM-2 basal medium (Lonza #CC-3156) containing 1% Penicillin Streptomycin. Test compounds were serially diluted to produce an 8-point dose curve in fresh serum-free medium to a final concentration of 0.3% DMSO (vehicle) and added to the cells and incubated for 1 h. Cells were then stimulated with 100 ng/mL recombinant human VEGF165 (R&D Systems #293-VE-500) for 5 min, washed with cold PBS, and immediately lysed with 130 μL of cold 1× lysis buffer [20 mM Tris, 137 mM sodium chloride, 2 mM EDTA, 10% glycerol, 1% NP-40 alternative, 1 mM activated sodium orthovanadate, 1 mM PefaBloc SC (Sigma-Aldrich #11429868001), protease/phosphatase inhibitor tablet (Thermo Fisher #A32959)]. Lysates were collected and 100 μL/well added into the human phospho-KDR Duo Set IC ELISA (R&D Systems #DYC 1766-2). Assay was performed according to manufacturer's instructions and sample phospho-KDR concentrations were extrapolated using human phospho-KDR control (R&D Systems #841421) as a standard. Positive control wells (100% activity) contained VEGF165-stimulated, DMSO-treated cell lysates. Negative control wells (0% activity) contained non-stimulated cell lysates. IC50 values were calculated by nonlinear regression analysis using a 4-parameter logistic curve fit in ActivityBase XE (IDBS).

Met [2] = target: T1, Met; assay: Met autophosphorylation ELISA in PC-3 cells; format: cell-based; conditions: cellular, HGF-stimulated, phospho-Met ELISA, read-out: c-Met IC50
Procedure: PC-3 prostate cancer cells (ATCC #CRL-1435) were seeded at 4×10^4 cells/well onto 24-well plates (Greiner #662165), in DMEM (Thermo Fisher #11995-040) containing 10% FBS (Thermo Fisher #26140-079), 1% MEM NEAA (Thermo Fisher #11140-050), 1% GlutaMax (Thermo Fisher #35050-061), and 1% Penicillin Streptomycin (Thermo Fisher #15140-122). PC-3 cells were incubated at 37° C., 5% CO2 for 24 h and then starved for 3 h in serum-free medium. Test compounds were serially diluted to produce an 8-point dose curve in fresh serum-free medium to a final concentration of 0.3% DMSO (vehicle) and added to the cells and incubated for 1 h. Cells were then stimulated with 100 ng/mL recombinant human HGF (R&D Systems #294-HG-250) for 10 min, washed with cold PBS, and immediately lysed with 130 μL of cold IX lysis buffer [20 mM Tris, 137 mM sodium chloride, 2 mM EDTA, 10% glycerol, 1% NP-40 alternative, 1 mM activated sodium orthovanadate, 1 mM PefaBloc SC (Sigma-Aldrich #11429868001), protease/phosphatase inhibitor tablet (Thermo Fisher #A32959)]. Lysates were clarified by centrifugation and 100 μL/well added into the PathScan phospho-Met (panTyr) Sandwich ELISA (Cell Signaling Technology #7333). Assay was performed according to manufacturer's instructions. Positive control wells (100% activity) contained HGF-stimulated, DMSO-treated cell lysates. Negative control wells (0% activity) contained HGF-stimulated, reference inhibitor-treated cell lysates. IC50 values were calculated by nonlinear regression analysis using a 4-parameter logistic curve fit in ActivityBase XL (IDBS).
Target sequence in this assay (P08581 25-1390): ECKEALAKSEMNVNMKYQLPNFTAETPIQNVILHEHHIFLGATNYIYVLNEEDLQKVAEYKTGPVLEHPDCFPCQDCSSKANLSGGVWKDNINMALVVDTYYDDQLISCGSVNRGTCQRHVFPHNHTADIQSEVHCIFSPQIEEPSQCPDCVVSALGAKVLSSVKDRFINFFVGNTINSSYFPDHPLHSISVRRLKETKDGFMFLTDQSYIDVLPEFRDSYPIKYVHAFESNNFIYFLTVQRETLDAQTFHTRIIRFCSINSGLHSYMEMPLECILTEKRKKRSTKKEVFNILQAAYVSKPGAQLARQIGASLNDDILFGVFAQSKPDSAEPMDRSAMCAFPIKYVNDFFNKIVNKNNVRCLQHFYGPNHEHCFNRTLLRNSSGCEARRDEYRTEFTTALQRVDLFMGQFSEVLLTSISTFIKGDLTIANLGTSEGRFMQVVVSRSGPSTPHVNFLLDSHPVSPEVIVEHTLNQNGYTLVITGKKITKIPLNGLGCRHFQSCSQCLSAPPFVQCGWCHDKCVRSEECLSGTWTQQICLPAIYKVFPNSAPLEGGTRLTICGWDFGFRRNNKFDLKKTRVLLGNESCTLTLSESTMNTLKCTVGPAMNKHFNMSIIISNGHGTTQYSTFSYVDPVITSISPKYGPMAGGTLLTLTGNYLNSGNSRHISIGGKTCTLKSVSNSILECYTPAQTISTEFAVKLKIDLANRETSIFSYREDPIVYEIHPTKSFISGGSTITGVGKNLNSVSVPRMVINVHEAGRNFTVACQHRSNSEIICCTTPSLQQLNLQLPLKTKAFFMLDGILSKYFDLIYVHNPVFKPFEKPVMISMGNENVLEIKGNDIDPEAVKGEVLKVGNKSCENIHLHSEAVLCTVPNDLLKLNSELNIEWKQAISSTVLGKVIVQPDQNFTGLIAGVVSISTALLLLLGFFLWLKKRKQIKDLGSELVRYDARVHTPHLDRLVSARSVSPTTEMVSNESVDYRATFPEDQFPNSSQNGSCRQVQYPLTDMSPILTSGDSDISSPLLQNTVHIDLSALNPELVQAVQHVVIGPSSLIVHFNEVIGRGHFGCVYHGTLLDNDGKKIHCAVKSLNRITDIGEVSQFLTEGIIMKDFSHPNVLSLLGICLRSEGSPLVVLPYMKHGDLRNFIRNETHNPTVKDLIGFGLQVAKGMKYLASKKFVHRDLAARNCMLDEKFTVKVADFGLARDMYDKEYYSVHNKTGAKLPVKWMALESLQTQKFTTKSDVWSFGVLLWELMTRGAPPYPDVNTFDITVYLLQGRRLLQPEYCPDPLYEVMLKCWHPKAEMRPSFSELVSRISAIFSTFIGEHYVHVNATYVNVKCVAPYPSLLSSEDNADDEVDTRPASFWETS

Row | Compound | IC50 (Met [1]) | IC50 (Human Axl) | IC50 (Mer) | IC50 (AXL) | IC50 (KDR) | IC50 (Met [2])
1 | O=C(Nc1ccc(F)cc1)C1(C(=O)Nc2ccc(Oc3ncnc4cc(Cl)ncc34)cc2)CC1 [Compound 101, 1-N-[4-(7-chloropyrido[4,3-d]pyrimidin-4-yl)oxy-phenyl]-1-N′-(4-fluorophenyl)cyclo-propane-1,1-dicarboxamide] | 100 to 1000 nM | 100 to 1000 nM | 100 to 1000 nM |  |  | 
2 | Cc1cc2ncnc(Oc3ccc(NC(=O)C4(C(=O)Nc5ccc(F)cc5)CC4)cc3)c2nc1C [Compound 43, 1-N-[4-(6,7-dimethyl-pyrido[3,2-d]pyrimidin-4-yl)oxyphenyl]-1-N′-(4-fluorophenyl)cyclo-propane-1,1-dicarboxamide] | 100 to 1000 nM | 100 to 1000 nM | 100 to 1000 nM |  |  | 
3 | COc1cnc2c(Oc3ccc(NC(=O)C4(C(=O)Nc5ccc(F)cc5)CC4)cc3)ncnc2c1 [Compound 16, 1-N′-(4-fluorophenyl)-1-N-[4-(7-methoxy-pyrido[3,2-d]pyrimidin-4-yl)oxyphenyl]cyclo-propane-1,1-dicarboxamide] | 10 to 100 nM | 100 to 1000 nM | 100 to 1000 nM |  |  | 
4 | COc1cc2nccc(Oc3ccc(NC(=O)C4(C(=O)Nc5ccc(F)cc5)CC4)cc3)c2nc1-c1cn[nH]c1 [Compound 183, 1-N′-(4-fluorophenyl)-1-N-[4-[[7-methoxy-6-(1H-pyrazol-4-yl)-1,5-naphthyridin-4-yl]oxy]phenyl]cyclopropane-1,1-dicarboxamide] |  |  |  | > 300 nM | > 300 nM | > 300 nM
5 | COc1cc2nccc(Oc3ccc(NC(=O)C4(C(=O)Nc5ccc(F)cc5)CC4)cc3F)c2nc1C(N)=O [Compound 168, 1-N′-[4-[(6-carbamoyl-7-methoxy-1,5-naphthyridin-4-yl)oxy]-3-fluoro-phenyl]-1-N-(4-fluorophenyl)cyclopropane-1,1-dicarboxamide] |  |  |  | > 300 nM | > 300 nM | 100 to 300 nM
6 | COCCOc1cc2nccc(Oc3cc(F)c(NC(=O)C4(C(=O)Nc5ccc(F)cc5)CC4)cc3F)c2nc1OC [Compound 152, 1-N′-[2,5-difluoro-4-[[6-methoxy-7-(2-methoxy-ethoxy)-1,5-naphthyridin-4-yl]oxy]phenyl]-1-N-(4-fluoro-phenyl)cyclopropane-1,1-dicarboxamide] |  |  |  | ≤ 10 nM | ≤ 10 nM | 10 to 100 nM
7 | O=C(Nc1ccc(F)cc1)C1(C(=O)Nc2ccc(Oc3ccnc4cc5c(nc34)OCCO5)cc2)CC1 [Compound 157, 1-N-[4-(2,3-dihydro-[1,4]dioxino[2,3-b][1,5]naphthyridin-6-yloxy)phenyl]-1-N′-(4-fluorophenyl)cyclopropane-1,1-dicarboxamide] |  |  |  | > 300 nM | > 300 nM | > 300 nM

Other lines, results leading:

Row | IC50 (Met [1]) | IC50 (Human Axl) | IC50 (Mer) | IC50 (AXL) | IC50 (KDR) | IC50 (Met [2]) | Compound
8 |  |  |  | 10 to 100 nM | 100 to 300 nM | 100 to 300 nM | COc1cc2nccc(Oc3ccc(NC(=O)C4(C(=O)Nc5ccc(F)cc5)CC4)cc3F)c2nc1C#N [Compound 165, 1-N′-[4-[(6-cyano-7-methoxy-1,5-naphthyridin-4-yl)oxy]-3-fluorophenyl]-1-N-(4-fluorophenyl)cyclo-propane-1,1-dicarboxamide]
9 |  |  |  | 100 to 300 nM | 10 to 100 nM | 100 to 300 nM | COc1cc2nccc(Oc3ccc(NC(=O)C4(C(=O)Nc5ccc(F)cc5)CC4)cc3Cl)c2nc1C#N [Compound 166, 1-N′-[3-chloro-4-[(6-cyano-7-methoxy-1,5-naphthyridin-4-yl)oxy]phenyl]-1-N-(4-fluorophenyl)cyclopropane-1,1-dicarboxamide]
10 |  |  |  | 100 to 300 nM | 100 to 300 nM | > 300 nM | COc1cc2nccc(Oc3ccc(NC(=O)C4(C(=O)Nc5ccc(F)cc5)CC4)cc3)c2nc1C#N [Compound 164, 1-N-[4-[(6-cyano-7-methoxy-1,5-naphthyridin-4-yl)oxy]phenyl]-1-N′-(4-fluoro-phenyl)cyclopropane-1,1-dicarboxamide]
